“And” between values parts separate entries of the source, which are not always exact repeats. Equal entries are not always repeated. Where two headings read alike, the source gives them in different places.
How the values were obtained:
[1] = system: p53 signaling (p53RE-bla HCT-116 cells); test: cells; assay type: cell-based
[2] = system: p53 signaling (p53RE-bla HCT-116 cells)
[3] = system: p53 signaling (p53RE-bla HCT-116 cells); remark: listed apart in the source
[4] = Homo sapiens, HCT-116, read-out: p53 activation EC50, cherry pick confirmation
[5] = Homo sapiens, HCT-116, read-out: p53 activation EC50, primary screening
[6] = Homo sapiens, HCT-116, read-out: p53 activation efficacy, cherry pick confirmation
[7] = Homo sapiens, HCT-116, read-out: p53 activation efficacy, primary screening
[8] = Homo sapiens, HCT-116, read-out: EC50, p53 activation, primary screening
[9] = Homo sapiens, HCT-116, read-out: Efficacy, p53 activation, primary screening
[10] = read-out: p53 activation EC50, cherry pick confirmation
[11] = read-out: p53 activation EC50, primary screening

## NC(=O)c1ncn([C@@H]2O[C@H](CO)[C@@H](O)[C@H]2O)n1 [Ribavirin]
[1]; [4]
  EC50: 10.8 µM
[1]; [5]
  EC50: 24.3 µM
[1]; [6]
  Emax: 43.7%
[1]; [7]
  Emax: 31.4%
[2]
  p53 activation EC50, cherry pick confirmation: inactive
  p53 activation EC50, primary screening: inactive
  p53 activation efficacy, cherry pick confirmation: inactive
  p53 activation efficacy, primary screening: inactive
[3]
  p53 activation EC50, cherry pick confirmation: inactive
  p53 activation EC50, primary screening: inactive
  p53 activation efficacy, cherry pick confirmation: inactive
  p53 activation efficacy, primary screening: inactive
p53RE-bla HCT-116 cells
  Viability EC50, cherry pick confirmation: inactive
  Viability EC50, primary screening: inactive
  Viability efficacy, cherry pick confirmation: inactive
  Viability efficacy, primary screening: inactive

## COc1c(C)c2c(c(O)c1C/C=C(\C)CCC(=O)O)C(=O)OC2 [Mycophenolic acid]
[1]; [4]
  EC50: 0.172 µM
[1]; [5]
  EC50: 0.174 µM
[1]; [6]
  Emax: 58.4%
[1]; [7]
  Emax: 42.7%
[2]
  p53 activation EC50, cherry pick confirmation: inactive
  p53 activation EC50, primary screening: inactive
  p53 activation efficacy, cherry pick confirmation: inactive
  p53 activation efficacy, primary screening: inactive
[3]
  p53 activation EC50, cherry pick confirmation: inactive
  p53 activation EC50, primary screening: inactive
  p53 activation efficacy, cherry pick confirmation: inactive
  p53 activation efficacy, primary screening: inactive
p53RE-bla HCT-116 cells
  Viability EC50, cherry pick confirmation: inactive
  Viability EC50, primary screening: inactive
  Viability efficacy, cherry pick confirmation: inactive
  Viability efficacy, primary screening: inactive

## O=S(=O)(O)c1ccccc1C=Cc1ccc(-c2ccc(C=Cc3ccccc3S(=O)(=O)O)cc2)cc1.[Na].[Na] [Disodium 4,4'-bis(2-sulfostyryl)biphenyl]
[1]
  activity outcome in p53-bla assay: also active in the absence of microsomes
  p53 activation Efficacy, No MS: 37.8243% and 32.5267%
[1]; read-out: p53 activation EC50, No MS
  EC50: 25.3 µM and 34.2 µM
[2]
  EC50: 29.8 µM
[2]; read-out: p53 activation EC50, RLM
  EC50: 29.8 µM and 24.9 µM
[3]
  activity outcome in p53-bla assay: active
[3]; read-out: p53 activation EC50, HLM
  EC50: 18.8 µM and 28.2 µM
p53RE-bla HCT-116 cells
  Viability EC50, HLM: inactive
  Viability EC50, No MS: inactive
  Viability EC50, RLM: inactive
  Viability Efficacy, HLM: inactive
  Viability Efficacy, No MS: inactive
  Viability Efficacy, RLM: inactive

## Cn1cnc([N+](=O)[O-])c1Sc1ncnc2nc[nH]c12 [Azathioprine]
[1]
  EC50, p53 activation, cherry pick confirmation: inactive
  Efficacy, p53 activation, cherry pick confirmation: inactive
[1]; [8]
  EC50: 33.7 µM
[1]; [9]
  Emax: 39.9%
[2]
  EC50, p53 activation, cherry pick confirmation: inactive
  EC50, p53 activation, primary screening: inactive
  Efficacy, p53 activation, cherry pick confirmation: inactive
  Efficacy, p53 activation, primary screening: inactive
[3]
  EC50, p53 activation, cherry pick confirmation: inactive
  EC50, p53 activation, primary screening: inactive
  Efficacy, p53 activation, cherry pick confirmation: inactive
  Efficacy, p53 activation, primary screening: inactive
p53RE-bla HCT-116 cells
  EC50, viability, cherry pick confirmation: inactive
  EC50, viability, primary screening: inactive
  Efficacy, viability, cherry pick confirmation: inactive
  Efficacy, viability, primary screening: inactive

## O=c1cc(-c2ccccc2)oc2cc(O)cc(O)c12 [Chrysin]
[1]; Homo sapiens, HCT-116, read-out: EC50, p53 activation, cherry pick confirmation
  EC50: 45 µM
[1]; [8]
  EC50: 49.5 µM
[1]; Homo sapiens, HCT-116, read-out: Efficacy, p53 activation, cherry pick confirmation
  Emax: 43.6%
[1]; [9]
  Emax: 38.6%
[2]
  EC50, p53 activation, cherry pick confirmation: inactive
  EC50, p53 activation, primary screening: inactive
  Efficacy, p53 activation, cherry pick confirmation: inactive
  Efficacy, p53 activation, primary screening: inactive
[3]
  EC50, p53 activation, cherry pick confirmation: inactive
  EC50, p53 activation, primary screening: inactive
  Efficacy, p53 activation, cherry pick confirmation: inactive
  Efficacy, p53 activation, primary screening: inactive
p53RE-bla HCT-116 cells
  EC50, viability, cherry pick confirmation: inactive
  EC50, viability, primary screening: inactive
  Efficacy, viability, cherry pick confirmation: inactive
  Efficacy, viability, primary screening: inactive

## N#CSCSC#N [Methylene bis(thiocyanate)]
[1]
  p53 activation efficacy, cherry pick confirmation: 39.736
  p53 activation efficacy, primary screening: 49.8917
[1]; [10]
  EC50: 10.1 µM
[1]; [11]
  EC50: 11.8 µM
[2]
  p53 activation EC50, cherry pick confirmation: inactive
  p53 activation EC50, primary screening: inactive
  p53 activation efficacy, cherry pick confirmation: inactive
  p53 activation efficacy, primary screening: inactive
[3]
  p53 activation EC50, cherry pick confirmation: inactive
  p53 activation EC50, primary screening: inactive
  p53 activation efficacy, cherry pick confirmation: inactive
  p53 activation efficacy, primary screening: inactive
p53RE-bla HCT-116 cells; read-out: Viability EC50, cherry pick confirmation
  EC50: 38.1 µM and 36 µM and 40.4 µM
p53RE-bla HCT-116 cells; read-out: Viability EC50, primary screening
  EC50: 39.6 µM and 47 µM and 35.4 µM

## O=c1c(O)c(-c2ccc(O)c(O)c2)oc2cc(O)cc(O)c12 [Quercetin]
[1]
  EC50, p53 activation, cherry pick confirmation: inactive
  Efficacy, p53 activation, cherry pick confirmation: inactive
[1]; [8]
  EC50: 45.8 µM
[1]; [9]
  Emax: 31.7%
[2]
  EC50, p53 activation, cherry pick confirmation: inactive
  EC50, p53 activation, primary screening: inactive
  Efficacy, p53 activation, cherry pick confirmation: inactive
  Efficacy, p53 activation, primary screening: inactive
[3]
  EC50, p53 activation, cherry pick confirmation: inactive
  EC50, p53 activation, primary screening: inactive
  Efficacy, p53 activation, cherry pick confirmation: inactive
  Efficacy, p53 activation, primary screening: inactive
p53RE-bla HCT-116 cells
  EC50, viability, cherry pick confirmation: inactive
  EC50, viability, primary screening: inactive
  Efficacy, viability, cherry pick confirmation: inactive
  Efficacy, viability, primary screening: inactive

## N=C1NC(=N)c2cc3ccccc3cc21 [1,3-Diiminobenz(f)isoindoline]
[1]
  p53 activation efficacy: 115.412 and 121.93
[1]; read-out: p53 activation EC50
  EC50: 23.7 µM and 25.2 µM
[2]
  p53 activation EC50: inactive
[3]
  p53 activation EC50: inactive
p53RE-bla HCT-116 cells
  Viability EC50: inactive

## CCCSP(=S)(OCC)Oc1ccc(SC)cc1 (centres unmarked) [Sulprofos]
[1]
  p53 activation EC50, cherry pick confirmation: inactive
  p53 activation EC50, primary screening: inactive
  p53 activation efficacy, cherry pick confirmation: inactive
  p53 activation efficacy, primary screening: inactive
[2]; [10]
  EC50: 6.95 µM
[3]
  p53 activation EC50, cherry pick confirmation: inactive
p53RE-bla HCT-116 cells
  Viability EC50, cherry pick confirmation: inactive
  Viability EC50, primary screening: inactive
  Viability efficacy, cherry pick confirmation: inactive
  Viability efficacy, primary screening: inactive

## Tannic acid
[1]
  p53 activation efficacy, cherry pick confirmation: 97.9477
  p53 activation efficacy, primary screening: 41.698
[1]; [10]
  EC50: 7.77 µM
[2]
  p53 activation EC50, cherry pick confirmation: inactive
  p53 activation EC50, primary screening: inactive
  p53 activation efficacy, cherry pick confirmation: inactive
  p53 activation efficacy, primary screening: inactive
[3]
  p53 activation EC50, cherry pick confirmation: inactive
  p53 activation EC50, primary screening: inactive
  p53 activation efficacy, cherry pick confirmation: inactive
  p53 activation efficacy, primary screening: inactive
p53RE-bla HCT-116 cells
  Viability EC50, cherry pick confirmation: inactive
  Viability EC50, primary screening: inactive
  Viability efficacy, cherry pick confirmation: inactive
  Viability efficacy, primary screening: inactive

## CC(O)C(=O)O.CCOc1ccc2nc3cc(N)ccc3c(N)c2c1.O [Ethacridine lactate hydrate]
[1]
  p53 activation efficacy, cherry pick confirmation: 145.785
  p53 activation efficacy, primary screening: 113.254
[1]; [10]
  EC50: 19.1 µM
[1]; [11]
  EC50: 21.5 µM
[2]
  p53 activation EC50, cherry pick confirmation: inactive
  p53 activation EC50, primary screening: inactive
  p53 activation efficacy, cherry pick confirmation: inactive
  p53 activation efficacy, primary screening: inactive
[3]
  p53 activation EC50, cherry pick confirmation: inactive
  p53 activation EC50, primary screening: inactive
  p53 activation efficacy, cherry pick confirmation: inactive
  p53 activation efficacy, primary screening: inactive
p53RE-bla HCT-116 cells
  Viability EC50, cherry pick confirmation: inactive
  Viability EC50, primary screening: inactive
  Viability efficacy, cherry pick confirmation: inactive
  Viability efficacy, primary screening: inactive

## CNC(=O)Oc1cccc2c1OC(C)(C)C2 [Carbofuran]
[1]
  p53 activation EC50: inactive
  p53 activation efficacy: inactive
[2]
  p53 activation EC50: inactive
[3]
  p53 activation EC50: inactive
p53RE-bla HCT-116 cells
  Viability EC50: inactive
  Viability efficacy: inactive

## CCC[CH2][Sn]([Cl])([Cl])[CH2]CCC [Dibutyltin dichloride]
[1]
  EC50, p53 activation, cherry pick confirmation: inactive
  Efficacy, p53 activation, cherry pick confirmation: inactive
  Efficacy, p53 activation, primary screening: 73.9367
[1]; read-out: EC50, p53 activation, primary screening
  EC50: 27.1 µM
[2]
  EC50, p53 activation, cherry pick confirmation: inactive
  EC50, p53 activation, primary screening: inactive
  Efficacy, p53 activation, cherry pick confirmation: inactive
  Efficacy, p53 activation, primary screening: inactive
[3]
  EC50, p53 activation, cherry pick confirmation: inactive
  EC50, p53 activation, primary screening: inactive
  Efficacy, p53 activation, cherry pick confirmation: inactive
  Efficacy, p53 activation, primary screening: inactive
p53RE-bla HCT-116 cells
  EC50, viability, primary screening: inactive

## c1cc(N(CC2CO2)CC2CO2)ccc1OCC1CO1 (centres unmarked) [4-(Diglycidylamino)phenyl glycidyl ether]
[1]
  p53 activation efficacy, cherry pick confirmation: 85.4543
  p53 activation efficacy, primary screening: 57.856
[1]; [10]
  EC50: 23.5 µM
[1]; [11]
  EC50: 27.3 µM
[2]
  p53 activation EC50, cherry pick confirmation: inactive
  p53 activation EC50, primary screening: inactive
  p53 activation efficacy, cherry pick confirmation: inactive
  p53 activation efficacy, primary screening: inactive
[3]
  p53 activation EC50, cherry pick confirmation: inactive
  p53 activation EC50, primary screening: inactive
  p53 activation efficacy, cherry pick confirmation: inactive
  p53 activation efficacy, primary screening: inactive
p53RE-bla HCT-116 cells
  Viability EC50, cherry pick confirmation: inactive
  Viability EC50, primary screening: inactive
  Viability efficacy, cherry pick confirmation: inactive
  Viability efficacy, primary screening: inactive
